Experimental data taken from patent US10710978B2, “STK4 inhibitors for treatment of hematologic malignancies” (Dana-Farber Cancer Institute, Inc., priority 2015, dated 2020).
Like-named read-outs stand apart in the source and are kept apart here.

Tests used:
STK4 (MST1) = STK4 (MST1) (Homo sapiens (Human), UniProt Q13043); test: Z-lyte biochemical IC50 assay (Invitrogen); conditions: ATP concentration matched the Km
In short: (§1)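 FRET-based Z-lyte kinase assays run at Invitrogen, ATP at each kinase's Km; for STK4, 6.25-160 ng enzyme with 2 μM Ser/Thr 07 peptide in HEPES pH 7.5, MgCl2, EGTA, Brij-35, 1 h reaction then development reagent. 10-point 3-fold titration from 10 μM.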

STK24 (MST3) = STK24 (MST3) (Homo sapiens (Human), UniProt Q9Y6E0); test: Z-lyte biochemical IC50 assay (Invitrogen); conditions: ATP concentration matched the Km
In short: as §1

NEK8 = NEK8 (Homo sapiens (Human), UniProt Q86SG6); test: KiNativ assay; type: binding; conditions: H929 live cell
Description: (§2) Biochemical IC50s of the compounds of the present disclosure against various kinases were measured in a KiNativ assay. Compounds were screened in duplicate at 10 μM in H929 live cell. IC50 was measured via Mass spectroscopy (MS).

PKD3 = PKD3 (Homo sapiens (Human), UniProt O94806); test: KiNativ assay; type: binding; conditions: H929 live cell
PKD3, sequence (O94806 whole entry): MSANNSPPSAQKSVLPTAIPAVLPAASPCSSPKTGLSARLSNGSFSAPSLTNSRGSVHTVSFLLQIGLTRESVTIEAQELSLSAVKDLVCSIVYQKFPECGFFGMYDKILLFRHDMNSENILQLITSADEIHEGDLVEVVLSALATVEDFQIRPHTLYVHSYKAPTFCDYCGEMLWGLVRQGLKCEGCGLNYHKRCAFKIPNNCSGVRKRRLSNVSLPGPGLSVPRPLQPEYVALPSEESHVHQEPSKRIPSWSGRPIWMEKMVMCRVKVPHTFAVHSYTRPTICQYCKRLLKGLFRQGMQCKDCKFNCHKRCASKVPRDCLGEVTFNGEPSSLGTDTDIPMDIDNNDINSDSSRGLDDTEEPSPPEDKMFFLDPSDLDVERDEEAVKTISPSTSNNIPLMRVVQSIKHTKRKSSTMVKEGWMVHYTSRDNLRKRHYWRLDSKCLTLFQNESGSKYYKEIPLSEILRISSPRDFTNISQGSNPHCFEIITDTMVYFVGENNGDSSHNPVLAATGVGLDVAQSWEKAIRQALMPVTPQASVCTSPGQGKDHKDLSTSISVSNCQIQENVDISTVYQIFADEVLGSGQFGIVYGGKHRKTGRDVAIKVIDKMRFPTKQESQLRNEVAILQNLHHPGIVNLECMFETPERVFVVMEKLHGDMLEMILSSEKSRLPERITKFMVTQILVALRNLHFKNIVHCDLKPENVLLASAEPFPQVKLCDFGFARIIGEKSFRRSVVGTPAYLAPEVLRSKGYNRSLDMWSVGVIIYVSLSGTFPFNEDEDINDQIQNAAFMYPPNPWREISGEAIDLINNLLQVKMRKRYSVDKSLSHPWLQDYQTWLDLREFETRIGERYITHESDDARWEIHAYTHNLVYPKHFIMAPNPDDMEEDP
Description: as §2

IKKe, TBK1 = test: KiNativ assay; type: binding; conditions: H929 live cell; for % inhibition: 10 μM, range class
Description: as §2

SRPK2 = SRPK2 (Homo sapiens (Human), UniProt P78362); test: KiNativ assay; type: binding; conditions: H929 live cell
SRPK2, sequence (P78362 whole entry): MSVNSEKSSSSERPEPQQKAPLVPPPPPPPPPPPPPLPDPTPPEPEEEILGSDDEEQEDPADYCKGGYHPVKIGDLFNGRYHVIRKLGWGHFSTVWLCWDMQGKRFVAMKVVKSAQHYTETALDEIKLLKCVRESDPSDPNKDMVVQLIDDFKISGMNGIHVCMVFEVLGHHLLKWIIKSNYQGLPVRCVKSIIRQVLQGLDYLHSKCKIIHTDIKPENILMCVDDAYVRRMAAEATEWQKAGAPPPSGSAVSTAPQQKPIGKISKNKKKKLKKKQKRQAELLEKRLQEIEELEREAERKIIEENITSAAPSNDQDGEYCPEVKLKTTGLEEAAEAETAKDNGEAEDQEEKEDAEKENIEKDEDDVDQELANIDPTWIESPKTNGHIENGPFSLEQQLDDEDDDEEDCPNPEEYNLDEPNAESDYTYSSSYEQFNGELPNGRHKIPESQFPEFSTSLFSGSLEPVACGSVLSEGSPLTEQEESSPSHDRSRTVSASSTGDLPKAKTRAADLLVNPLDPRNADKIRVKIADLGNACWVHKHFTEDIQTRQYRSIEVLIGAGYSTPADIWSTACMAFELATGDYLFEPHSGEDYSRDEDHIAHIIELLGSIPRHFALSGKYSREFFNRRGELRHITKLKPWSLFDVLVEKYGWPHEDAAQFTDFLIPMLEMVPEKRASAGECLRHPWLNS
Description: as §2

TLK2 = TLK2 (Homo sapiens (Human), UniProt Q86UE8); test: KiNativ assay; type: binding; conditions: H929 live cell
Description: as §2

FYN, SRC, YES = test: KiNativ assay; type: binding; conditions: H929 live cell; for % inhibition: 10 μM, range class
Description: as §2

RSK1 domain1 = RSK1 domain1 (Homo sapiens (Human), UniProt Q15418); test: KiNativ assay; type: binding; conditions: H929 live cell
Description: as §2

PKCz = PKCz (Homo sapiens (Human), UniProt Q05513); test: KiNativ assay; type: binding; conditions: H929 live cell
Description: as §2

SGK3 = SGK3 (Homo sapiens (Human), UniProt Q96BR1); test: KiNativ assay; type: binding; conditions: H929 live cell
Description: as §2

MAP2K6 = MAP2K6 (Homo sapiens (Human), UniProt P52564); test: KiNativ assay; type: binding; conditions: H929 live cell
MAP2K6, sequence (P52564 whole entry): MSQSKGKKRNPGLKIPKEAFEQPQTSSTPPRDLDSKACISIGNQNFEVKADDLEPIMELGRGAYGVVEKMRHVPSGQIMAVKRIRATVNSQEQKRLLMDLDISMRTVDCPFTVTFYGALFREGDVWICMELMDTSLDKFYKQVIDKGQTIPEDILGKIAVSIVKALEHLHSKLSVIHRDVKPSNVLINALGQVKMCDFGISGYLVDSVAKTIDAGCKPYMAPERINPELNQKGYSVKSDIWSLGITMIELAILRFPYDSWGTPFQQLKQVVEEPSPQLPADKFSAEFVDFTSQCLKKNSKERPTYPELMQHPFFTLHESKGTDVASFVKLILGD
Description: as §2

RSK2 domain1 = RSK2 domain1 (Homo sapiens (Human), UniProt P51812); test: KiNativ assay; type: binding; conditions: H929 live cell
Description: as §2

PHKg2 = PHKg2 (Homo sapiens (Human), UniProt P15735); test: KiNativ assay; type: binding; conditions: H929 live cell
PHKg2, sequence (P15735 whole entry): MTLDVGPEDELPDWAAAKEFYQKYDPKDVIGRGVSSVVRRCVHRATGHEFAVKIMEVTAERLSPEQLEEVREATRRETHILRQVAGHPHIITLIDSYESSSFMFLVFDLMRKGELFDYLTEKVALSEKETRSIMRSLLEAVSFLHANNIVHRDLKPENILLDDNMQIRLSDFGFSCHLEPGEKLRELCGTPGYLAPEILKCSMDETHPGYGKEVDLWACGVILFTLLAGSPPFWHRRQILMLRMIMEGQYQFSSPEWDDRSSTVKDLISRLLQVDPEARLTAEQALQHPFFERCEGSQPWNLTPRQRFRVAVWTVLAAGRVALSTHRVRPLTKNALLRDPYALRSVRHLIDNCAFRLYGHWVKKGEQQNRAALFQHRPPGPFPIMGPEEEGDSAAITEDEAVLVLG
Description: as §2

Wnk1, Wnk2, Wnk3 = test: KiNativ assay; type: binding; conditions: H929 live cell; for % inhibition: 10 μM, range class
Description: as §2

EphB2 = EphB2 (Homo sapiens (Human), UniProt P29323); test: KiNativ assay; type: binding; conditions: H929 live cell
EphB2, sequence (P29323 19-1055): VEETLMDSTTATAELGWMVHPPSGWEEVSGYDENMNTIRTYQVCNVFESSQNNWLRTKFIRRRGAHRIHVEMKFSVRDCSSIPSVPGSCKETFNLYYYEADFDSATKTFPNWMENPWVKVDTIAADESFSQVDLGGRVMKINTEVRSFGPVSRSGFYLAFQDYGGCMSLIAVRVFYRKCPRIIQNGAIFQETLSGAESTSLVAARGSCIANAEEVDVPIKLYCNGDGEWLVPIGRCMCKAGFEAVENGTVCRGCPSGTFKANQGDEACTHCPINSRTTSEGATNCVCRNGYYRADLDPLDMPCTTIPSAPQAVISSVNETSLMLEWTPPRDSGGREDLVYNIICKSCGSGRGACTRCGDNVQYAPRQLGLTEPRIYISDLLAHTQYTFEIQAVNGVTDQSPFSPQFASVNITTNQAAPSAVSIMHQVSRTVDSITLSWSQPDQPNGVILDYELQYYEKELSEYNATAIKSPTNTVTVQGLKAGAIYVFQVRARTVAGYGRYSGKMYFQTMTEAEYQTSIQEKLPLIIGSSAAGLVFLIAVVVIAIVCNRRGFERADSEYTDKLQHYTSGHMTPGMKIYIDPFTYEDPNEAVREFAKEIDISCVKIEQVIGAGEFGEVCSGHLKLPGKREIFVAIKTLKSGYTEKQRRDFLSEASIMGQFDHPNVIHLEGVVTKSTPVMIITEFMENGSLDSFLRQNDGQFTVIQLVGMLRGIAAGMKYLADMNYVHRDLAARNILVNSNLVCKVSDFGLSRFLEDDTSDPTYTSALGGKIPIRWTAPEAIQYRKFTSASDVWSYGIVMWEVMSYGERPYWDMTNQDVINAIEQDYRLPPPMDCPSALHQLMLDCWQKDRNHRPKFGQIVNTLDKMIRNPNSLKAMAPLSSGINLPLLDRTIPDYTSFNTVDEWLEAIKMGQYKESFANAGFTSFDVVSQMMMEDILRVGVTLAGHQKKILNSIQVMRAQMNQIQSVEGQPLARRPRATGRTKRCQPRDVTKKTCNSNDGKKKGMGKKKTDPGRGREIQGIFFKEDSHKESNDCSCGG
Description: as §2

MARK2 = MARK2 (Homo sapiens (Human), UniProt Q7KZI7); test: KiNativ assay; type: binding; conditions: H929 live cell
Description: as §2

PIP4K2A = PIP4K2A (Homo sapiens (Human), UniProt P48426); test: KiNativ assay; type: binding; conditions: H929 live cell
PIP4K2A, sequence (P48426 whole entry): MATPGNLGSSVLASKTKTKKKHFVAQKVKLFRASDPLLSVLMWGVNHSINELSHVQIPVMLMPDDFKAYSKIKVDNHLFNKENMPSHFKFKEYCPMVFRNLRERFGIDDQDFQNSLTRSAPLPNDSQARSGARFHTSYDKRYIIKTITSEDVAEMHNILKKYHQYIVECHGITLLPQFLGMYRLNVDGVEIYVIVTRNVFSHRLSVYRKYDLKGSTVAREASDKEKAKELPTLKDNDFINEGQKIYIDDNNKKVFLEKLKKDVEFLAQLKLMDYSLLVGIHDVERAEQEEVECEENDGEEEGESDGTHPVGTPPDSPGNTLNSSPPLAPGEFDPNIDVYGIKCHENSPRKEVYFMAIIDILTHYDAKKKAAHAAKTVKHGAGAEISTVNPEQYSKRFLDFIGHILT
Description: as §2

[1] = system: RSK1 domain1, RSK2 domain1, RSK3 domain1; test: KiNativ assay; type: binding; conditions: H929 live cell; for % inhibition: 10 μM, range class
Description: as §2

CaMKK2 = CaMKK2 (Homo sapiens (Human), UniProt Q96RR4); test: KiNativ assay; type: binding; conditions: H929 live cell
Description: as §2

MLKL = MLKL (Homo sapiens (Human), UniProt Q8NB16); test: KiNativ assay; type: binding; conditions: H929 live cell
Description: as §2

TLK1 = TLK1 (Homo sapiens (Human), UniProt Q9UKI8); test: KiNativ assay; type: binding; conditions: H929 live cell
TLK1, sequence (Q9UKI8 whole entry): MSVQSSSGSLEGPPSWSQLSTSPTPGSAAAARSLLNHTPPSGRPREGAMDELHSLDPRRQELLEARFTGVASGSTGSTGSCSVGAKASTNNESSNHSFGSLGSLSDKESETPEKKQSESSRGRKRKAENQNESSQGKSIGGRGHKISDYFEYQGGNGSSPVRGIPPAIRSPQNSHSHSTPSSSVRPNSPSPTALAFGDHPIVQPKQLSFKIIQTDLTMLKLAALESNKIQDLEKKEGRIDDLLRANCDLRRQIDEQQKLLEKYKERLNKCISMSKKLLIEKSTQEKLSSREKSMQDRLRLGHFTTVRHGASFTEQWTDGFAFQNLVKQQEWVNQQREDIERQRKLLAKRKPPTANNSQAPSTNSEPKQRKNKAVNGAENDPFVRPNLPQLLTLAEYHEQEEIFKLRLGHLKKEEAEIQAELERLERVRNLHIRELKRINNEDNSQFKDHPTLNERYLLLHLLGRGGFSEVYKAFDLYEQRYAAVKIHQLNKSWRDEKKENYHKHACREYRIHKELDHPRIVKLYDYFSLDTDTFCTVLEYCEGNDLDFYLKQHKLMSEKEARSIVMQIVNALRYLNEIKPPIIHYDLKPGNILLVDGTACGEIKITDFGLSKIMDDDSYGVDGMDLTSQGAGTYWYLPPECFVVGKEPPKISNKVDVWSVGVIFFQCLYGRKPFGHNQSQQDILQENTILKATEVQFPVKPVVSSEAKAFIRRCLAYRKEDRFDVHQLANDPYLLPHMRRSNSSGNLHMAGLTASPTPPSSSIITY
Description: as §2

RSKL1 = RSKL1 (Homo sapiens (Human), UniProt Q96S38); test: KiNativ assay; type: binding; conditions: H929 live cell
Description: as §2

TAO1, TAO3 = test: KiNativ assay; type: binding; conditions: H929 live cell; for % inhibition: 10 μM, range class
Description: as §2

IKKa = IKKa (Homo sapiens (Human), UniProt O15111); test: KiNativ assay; type: binding; conditions: H929 live cell
Description: as §2

SMG1 = SMG1 (Homo sapiens (Human), UniProt Q96Q15); test: KiNativ assay; type: binding; conditions: H929 live cell
Description: as §2

CK1g3 = CK1g3 (Homo sapiens (Human), UniProt Q9Y6M4); test: KiNativ assay; type: binding; conditions: H929 live cell
CK1g3, sequence (Q9Y6M4 whole entry): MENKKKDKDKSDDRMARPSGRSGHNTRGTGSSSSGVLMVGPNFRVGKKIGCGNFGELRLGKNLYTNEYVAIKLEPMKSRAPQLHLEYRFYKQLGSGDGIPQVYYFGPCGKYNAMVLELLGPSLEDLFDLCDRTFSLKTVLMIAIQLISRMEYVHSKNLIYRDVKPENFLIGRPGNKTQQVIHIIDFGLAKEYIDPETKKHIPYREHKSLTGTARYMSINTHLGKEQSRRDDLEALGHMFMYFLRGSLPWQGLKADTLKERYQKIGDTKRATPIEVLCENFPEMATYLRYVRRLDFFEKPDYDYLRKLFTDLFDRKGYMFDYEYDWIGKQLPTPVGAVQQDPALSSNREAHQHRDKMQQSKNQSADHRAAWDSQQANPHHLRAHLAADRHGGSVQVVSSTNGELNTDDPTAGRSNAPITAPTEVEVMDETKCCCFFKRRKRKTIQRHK
Description: as §2

MST4 = test: KiNativ assay; type: binding; conditions: H929 live cell; for % inhibition: 10 μM, range class
Description: as §2

AurA, AurB, AurC = test: KiNativ assay; type: binding; conditions: H929 live cell; for % inhibition: 10 μM, range class
Description: as §2

[2] = range class, read-out: % inhibition

Compound: COc1cc(NS(=O)(=O)C2CC2)ccc1-c1cnc(N)c(-c2ccc3c(c2)CCNC3=O)c1 [Compound I-50, N-(4-(6-amino-5-(1-oxo-1,2,3,4-tetrahydroisoquinolin-6-yl)pyridin-3-yl)-3-methoxyphenyl) cyclopropanesulfonamide]
- IC50 (STK4 (MST1)): < 40 nM
- IC50 (STK24 (MST3)): 200 to 900 nM
- inhibition at 10 µM (NEK8; [2]): 0%
- inhibition at 10 µM (NEK8; read-out: inhibition (10 μM)): -8.1%
- inhibition at 10 µM (PKD3; [2]): 50 to 75%
- inhibition at 10 µM (PKD3; read-out: inhibition (10 μM)): 69.7%
- % inhibition (IKKe, TBK1): 0.0%
- inhibition (10 μM) (IKKe, TBK1): 33.9%
- inhibition at 10 µM (SRPK2; [2]): 0%
- inhibition at 10 µM (SRPK2; read-out: inhibition (10 μM)): 1.8%
- inhibition at 10 µM (TLK2; [2]): 0%
- inhibition at 10 µM (TLK2; read-out: inhibition (10 μM)): -3%
- % inhibition (FYN, SRC, YES): 0.0%
- inhibition (10 μM) (FYN, SRC, YES): −2.0%
- inhibition at 10 µM (RSK1 domain1; [2]): 0%
- inhibition at 10 µM (RSK1 domain1; read-out: inhibition (10 μM)): -4.6%
- inhibition at 10 µM (PKCz; [2]): 0%
- inhibition at 10 µM (PKCz; read-out: inhibition (10 μM)): -1.7%
- inhibition at 10 µM (SGK3; [2]): 0%
- inhibition at 10 µM (SGK3; read-out: inhibition (10 μM)): 11.2%
- inhibition at 10 µM (MAP2K6; [2]): 0%
- inhibition at 10 µM (MAP2K6; read-out: inhibition (10 μM)): 10.9%
- inhibition at 10 µM (RSK2 domain1; [2]): 0%
- inhibition at 10 µM (RSK2 domain1; read-out: inhibition (10 μM)): 21%
- inhibition at 10 µM (PHKg2; [2]): 0%
- inhibition at 10 µM (PHKg2; read-out: inhibition (10 μM)): -38.6%
- % inhibition (Wnk1, Wnk2, Wnk3): 0.0%
- inhibition (10 μM) (Wnk1, Wnk2, Wnk3): 15.9%
- inhibition at 10 µM (EphB2; [2]): 0%
- inhibition at 10 µM (EphB2; read-out: inhibition (10 μM)): 8.2%
- inhibition at 10 µM (MARK2; [2]): 0%
- inhibition at 10 µM (MARK2; read-out: inhibition (10 μM)): -8.6%
- inhibition at 10 µM (PIP4K2A; [2]): 0%
- inhibition at 10 µM (PIP4K2A; read-out: inhibition (10 μM)): -5.5%
- % inhibition [1]: 0.0%
- inhibition (10 μM) [1]: 15.8%
- inhibition at 10 µM (CaMKK2; [2]): 75 to 90%
- inhibition at 10 µM (CaMKK2; read-out: inhibition (10 μM)): 88.3%
- inhibition at 10 µM (MLKL; [2]): 0%
- inhibition at 10 µM (MLKL; read-out: inhibition (10 μM)): 8.2%
- inhibition at 10 µM (TLK1; [2]): 0%
- inhibition at 10 µM (TLK1; read-out: inhibition (10 μM)): -7.5%
- inhibition at 10 µM (RSKL1; [2]): 0%
- inhibition at 10 µM (RSKL1; read-out: inhibition (10 μM)): 3.2%
- % inhibition (TAO1, TAO3): 0.0%
- inhibition (10 μM) (TAO1, TAO3): 17.8%
- inhibition at 10 µM (IKKa; [2]): 0%
- inhibition at 10 µM (IKKa; read-out: inhibition (10 μM)): -1.9%
- inhibition at 10 µM (SMG1; [2]): 0%
- inhibition at 10 µM (SMG1; read-out: inhibition (10 μM)): 30.8%
- inhibition at 10 µM (CK1g3; [2]): 75 to 90%
- inhibition at 10 µM (CK1g3; read-out: inhibition (10 μM)): 77.1%
- % inhibition (MST4): 0.0%
- inhibition (10 μM) (MST4): −68.1%
- % inhibition (AurA, AurB, AurC): 0.0%
- inhibition (10 μM) (AurA, AurB, AurC): 17.8%

Compound: Nc1ncc(-c2ccc(NS(=O)(=O)C3CC3)cc2F)cc1-c1ccc2c(c1)CCNC2=O [Compound I-51, N-(4-(6-amino-5-(1-oxo-1,2,3,4-tetrahydroisoquinolin-6-yl)pyridin-3-yl)-3-fluorophenyl) cyclopropanesulfonamide]
- IC50 (STK4 (MST1)): < 40 nM
- IC50 (STK24 (MST3)): 40 to 200 nM
- inhibition at 10 µM (NEK8; [2]): 0%
- inhibition at 10 µM (NEK8; read-out: inhibition (10 μM)): -8.1%
- inhibition at 10 µM (PKD3; [2]): 50 to 75%
- inhibition at 10 µM (PKD3; read-out: inhibition (10 μM)): 74.8%
- % inhibition (IKKe, TBK1): 0.0%
- inhibition (10 μM) (IKKe, TBK1): 26.7%
- inhibition at 10 µM (SRPK2; [2]): 0%
- inhibition at 10 µM (SRPK2; read-out: inhibition (10 μM)): -41%
- inhibition at 10 µM (TLK2; [2]): 0%
- inhibition at 10 µM (TLK2; read-out: inhibition (10 μM)): -20.1%
- % inhibition (FYN, SRC, YES): 0.0%
- inhibition (10 μM) (FYN, SRC, YES): −36.4%
- inhibition at 10 µM (RSK1 domain1; [2]): 0%
- inhibition at 10 µM (RSK1 domain1; read-out: inhibition (10 μM)): 5.4%
- inhibition at 10 µM (PKCz; [2]): 0%
- inhibition at 10 µM (PKCz; read-out: inhibition (10 μM)): 2.1%
- inhibition at 10 µM (SGK3; [2]): 0%
- inhibition at 10 µM (SGK3; read-out: inhibition (10 μM)): 26.3%
- inhibition at 10 µM (MAP2K6; [2]): 0%
- inhibition at 10 µM (MAP2K6; read-out: inhibition (10 μM)): -3.5%
- inhibition at 10 µM (RSK2 domain1; [2]): 35 to 40%
- inhibition at 10 µM (RSK2 domain1; read-out: inhibition (10 μM)): 49.9%
- inhibition at 10 µM (PHKg2; [2]): 0%
- inhibition at 10 µM (PHKg2; read-out: inhibition (10 μM)): -45.4%
- % inhibition (Wnk1, Wnk2, Wnk3): 0.0%
- inhibition (10 μM) (Wnk1, Wnk2, Wnk3): 0.2%
- inhibition at 10 µM (EphB2; [2]): 0%
- inhibition at 10 µM (EphB2; read-out: inhibition (10 μM)): 8.8%
- inhibition at 10 µM (MARK2; [2]): 0%
- inhibition at 10 µM (MARK2; read-out: inhibition (10 μM)): 24.6%
- inhibition at 10 µM (PIP4K2A; [2]): 0%
- inhibition at 10 µM (PIP4K2A; read-out: inhibition (10 μM)): -16.5%
- % inhibition [1]: 0.0%
- inhibition (10 μM) [1]: 25.8%
- inhibition at 10 µM (CaMKK2; [2]): 75 to 90%
- inhibition at 10 µM (CaMKK2; read-out: inhibition (10 μM)): 78.5%
- inhibition at 10 µM (MLKL; [2]): 50 to 75%
- inhibition at 10 µM (MLKL; read-out: inhibition (10 μM)): 51.4%
- inhibition at 10 µM (TLK1; [2]): 0%
- inhibition at 10 µM (TLK1; read-out: inhibition (10 μM)): -11.8%
- inhibition at 10 µM (RSKL1; [2]): 0%
- inhibition at 10 µM (RSKL1; read-out: inhibition (10 μM)): -22.1%
- % inhibition (TAO1, TAO3): 75-90%
- inhibition (10 μM) (TAO1, TAO3): 80.4%
- inhibition at 10 µM (IKKa; [2]): 0%
- inhibition at 10 µM (IKKa; read-out: inhibition (10 μM)): -17.3%
- inhibition at 10 µM (SMG1; [2]): 50 to 75%
- inhibition at 10 µM (SMG1; read-out: inhibition (10 μM)): 55.8%
- inhibition at 10 µM (CK1g3; [2]): 75 to 90%
- inhibition at 10 µM (CK1g3; read-out: inhibition (10 μM)): 88.2%
- % inhibition (MST4): 0.0%
- inhibition (10 μM) (MST4): 33.9%
- % inhibition (AurA, AurB, AurC): 50-75%
- inhibition (10 μM) (AurA, AurB, AurC): 53.2%
